The values below are quoted from earlier work in paper PMC6522624, “Comparison of desferrioxamine and NODAGA for the gallium-68 labeling of exendin-4” (EJNMMI Radiopharmacy and Chemistry, 2019).

The conditions of series [1]: gallium chelation; ref Šimeček et al. [2011]; Evers et al. [1989]. From the text:
However, their thermodynamic complex formation stability constant (log K) have been reported to be very similar, with 28.65 for DFO and 29.63 for NOTA (Šimeček et al. [2011]; Evers et al. [1989]).

For series [2] the following is noted: in vivo. An excerpt:
Insulinomas generally express highly and specifically the glucagon-like peptide-1 receptor (GLP-1R) as they are of β-cell origin (Reubi and Waser [2003]). GLP-1R is a G-protein coupled receptor of the class B receptor family (Zhang et al. [2017]). […] Dipeptidyl peptidase-4 (DPP4) is responsible for the cleavage of the peptide (Baggio and Drucker [2007]).

Turning to `O=C(O)CN1CCN(CC(=O)O)CCN(CC(=O)O)CC1` [NOTA], the “thermodynamic complex formation stability constant (log K)” value in series [1] was 29.63. As to `CC(=O)N(O)CCCCCNC(=O)CCC(=O)N(O)CCCCCNC(=O)CCC(=O)N(O)CCCCCN` [DFO, N′-[5-(acetyl-hydroxy-amino)pentyl]-N-[5-[3-(5-aminopentyl-hydroxy-carbamoyl)propanoylamino]pentyl]-N-hydroxy-butane diamide], the “thermodynamic complex formation stability constant (log K)” value in series [1] is 28.65. Take “GLP-1: endogenous peptide ligand of GLP-1R”: the biological half-life result in series [2] was “about 2 min”.
